# Laboratory results taken from EP0167553B1, “NEW THERAPEUTICAL APPLICATION OF AN INDANE DIONE DERIVATIVE AND PHARMACEUTICAL COMPOSITIONS INTENDED TO SAID UTILIZATION” (priority 1983, dated 1985).
# Assays:
# Rats: Wistar femelles [1] = test: Atherogenic diet (modified Aubert technique): biochemical examinations and atherogenic risk; assay type: in vivo, Rat Wistar; set-up: score général Biochimie / Risque athérogène Score Total: scale not given here; settings: 100 mg/kg
# Description: (§1) La technique utilisée est celle, légèrement modifiée, de AUBERT D., FERAUD J.C., LACAZE B., PEPINO., PANAK E. et PODESTA M. "Athérogénèse expérimentale chez le Rat Wistar". ATHEROSCLEROSIS 2Q (1974) 263 - 280.
# (§2) • - Rats: Wistar femelles, E.O.P.S. en provenance de l'élevage EVIC-CEBA. • - Poids corporel: 160 180 g au départ de l'étude • - Alimentation: UAR A03, enrichi en cholestérol (0,5 %) et en Acide chloique (0,5 %). • - Eau de boisson: eau de ville. • - 15 animaux par lot et par cage MAKROLON SAFI® de 59 x 38,5 cm sur litière de copeaux de bois blanc dépoussiérés. • - Cages placées dans un module animalerie climatisé (20°C * 1°C), à l'humidité constante (50 % ± 10 %). Durée d'éclairement: 12 heures par jour (7 h à 19 h). • - Administration des produits: Après 15 jours de régime athéromateux, on leur administre par voie orale pendant 4 jours 250 000 Ul/kg de vitamine D2 (Stérogyl 15 H) en solution dans l'huile d'olive. On administre ensuite les produits à étudier pendant 4 semaines dès la fin de l'administration de l'agent lésionnel.
# (§3) L'étude porte sur 5 Lots de 15 rats (tableau N° IV)
# En fin d'étude, on pratique sur tous les animaux survivants les examens suivants: • - Cholestérol total, • - Cholestérol estérifié, • - Cholestérol HDL • - Cholestérol LDL (évaluation), • - Lipides totaux, • - Triglycérides.
# Rats: Wistar femelles [2] = test: Atherogenic diet (modified Aubert technique): macroscopic examination of the aorta; assay type: in vivo, Rat Wistar; settings: 100 mg/kg
# Description: as §1, §2
# En fin d'étude, tous les animaux sont sacrifiés par ponction subtotale du sang à l'aorte abdominale après anesthésie au pentobarbital sodique. On prélève le coeur, le foie et l'aorte sur laquelle on effectue la cotation du pouvoir athérogène. Pour ce faire, les aortes sont coupées longitudinalement puis étalées pour permettre une vue d'ensemble du revêtement endothélial depuis les valvules aortiques jusqu'à la bifurcation du tronc coeliaque (segment inférieur de l'aorte thoracique).
# L'aorte est séparée en 2 zones: • - Zone 1: Valvules aortiques - premières artères intercostales • - Zone 2: premières artères intercostales - bifurcation du tronc coeliaque.
# L'intensité des dépôts athéromateux est évaluée selon les critères suivants: • - Stade 0: Absence de dépôts • - Stade 1: Dépôts discrets ([…]) peu nombreux • - Stade 2: Dépôts discrets nombreux • - Stade 3: Dépôts importants (> 1 mm) nombreux • - Stade 4: Dépôts très importants ou très nombreux mais laissant quelques zones non infiltrées. • - Stade 5: Dépôts sur tout l'endothélium.
# Deux paramètres sont à prendre en considération: • 1. Le nombre d'animaux présentant des lésions macroscopiques, dont le pourcentage d'animaux atteints. • 2. L'intensité des lésions observées cotées selon les indications fournies précédemment.
# Rats: Wistar femelles [3] = test: Atherogenic diet (modified Aubert technique): histopathological examination; assay type: in vivo, Rat Wistar; settings: 100 mg/kg; three parameters scored relative to Clofibrate
# Description: as §1, §2
# Les aortes, les foies et les coeurs sont fixés au Bouitaqueux et inclus à la paraffine après passage par les alcools à concentration croissante et par le toluène.
# Les foies sont colorés par la technique à l'hématéine-éosine. Les aortes sont colorées par: • - la technique à l'orcéine - vert lumière afin de mettre en évidence les altérations structurales des lames élastiques. • - la technique à l'acide périodique plus réactif de Schiff pour déceler les dépôts de mucopolysaccharides, • - la technique à l'hématéine plus éosine afin de mettre en évidence les dépôts de calcium.
# L'intensité des altérations observées et le degré d'athéromatose sont indiquées par l'un des signes:
# • - Pas d'athéromatose 0 • = Très léger degré d'athéromatose 0,5 • + Léger degré d'athéromatose 1 • ++ Moyen degré d'athéromatose 2 • +++Important degré d'athéromatose 3
# Les zones athéromateuses sont dénombrées sur une longueur identique pour chacune des aortes examinées. […]
# Rats: Wistar femelles [4] = test: Atherogenic diet (modified Aubert technique): mortality, body weight, tolerance, overall score; assay type: in vivo, Rat Wistar; settings: 100 mg/kg
# Description: as §2, §3
# • - Le comportement et l'[…] pondérale des animaux sont étudiés par l'observation quotidienne et les pesées hebdomadaires. L'étude de l'évolution pondérale ne montre pas de différence significative entre les différents lots. C'est un indice de bonne tolérance du traitement. • - La moralité est notée dans chaque lot; elle peut atteindre 30 % des animaux ce qui nécessite des lots de 15 animaux. L'administration chronique de 100 mg/kg de Clofibrate correspond à la dose maximale tolérée par le Rat sain selon nos expériences personnelles.
# Les scores obtenus par les différents produits étudiés sont les suivants (Tableau V)
# Rat Wistar = test: Hyperlipidaemia induced by Triton WR 1339 injection; assay type: in vivo; set-up: Triglycérides, score par rapport au Procétofène 250 mg/kg: scale not given here
# Description: L'hyperlipidémie par injection de Triton WR 1339 (marque de fabrique), réalisée chez le Rat Wistar, est antagonisée ou diminuée par l'administration d'agents hypolipémiants.
# • - Rats Wistar mâles. • - Poids corporel: 150 -180 grammes. • - Animaux E.O.P.S. (Exempts d'Organisme Pathogène Spécifique). • - Alimentation UAR A04 • - Eau de boisson à volonté • - 6 animaux par lot de traitement et par cage MAKROLON SAFI (marque de fabrique) 60 X 40 cm, sur litière de copeaux de bois dépoussiérés • - Cages placées dans un module animalerie climatisé (19 à 21°C) à degré hygrométrique constant (40 à 60 p.100), dans lequel l'air est renouvelé 10 fois par heure, 12 heures d'éclairement par jour.
# • . - 18 h: mise à jeun. • . Temps 0 - administration du Triton WR 1339® (400 mg/kg IP.). • . + 10 mn: administration du produit étudié. • - + 6 h: 1er prélèvement sanguin au sinus rétro-orbitaire. • . + 24 h: 2ème prélèvement sanguin au sinus rétro-orbitaire.
# L'essai comporte 8 lots dont un lot témoin (animaux sains) et un lot témoin triton (Tableau I).
# [5] = 4 weeks, score relative to Clofibrate (Base 1)
# [6] = 250 mg/kg, 6 heures after Triton
# [7] = 250 mg/kg, 24 heures after Triton
# [8] = 500 mg/kg, 6 heures after Triton
# [9] = 500 mg/kg, 24 heures after Triton
compound,measurement,setting,value
CC(C)OC(=O)C(C)(C)Oc1ccc(C(=O)c2ccc(Cl)cc2)cc1 [Fenclofibrate],Cholesterol LDL Cholesterol HDL Score/Clofibrate,Rats: Wistar femelles [1],0.16
same,Cholesterol T/ Cholesterol HDL Score/Clofibrate,Rats: Wistar femelles [1],0.07
same,Risque athérogène Score Total,Rats: Wistar femelles [1],0.23
same,Cholesterol E Score,Rats: Wistar femelles [1]; [5],0.40
same,Cholesterol HDL Score,Rats: Wistar femelles [1]; [5],0.04
same,Cholesterol LDL Score,Rats: Wistar femelles [1]; [5],0.16
same,Cholesterol T Score,Rats: Wistar femelles [1]; [5],0.02
same,Lipides totaux Score,Rats: Wistar femelles [1]; [5],0.29
same,Cholesterol LDL Cholesterol HDL Score,Rats: Wistar femelles [1]; atherogenic risk ratio,21.44
same,Cholesterol T/ Cholesterol HDL Score,Rats: Wistar femelles [1]; atherogenic risk ratio,25.32
same,score général Biochimie,Rats: Wistar femelles [1]; sum of the individual biochemical scores,1.98
same,Animaux Atteints Score Clofibrate,Rats: Wistar femelles [2],0.92
same,Intensité des lésions Score Clofibrate,Rats: Wistar femelles [2],1.25
same,Observations Macroscopiques Score Total,Rats: Wistar femelles [2],2.17
same,Animaux Atteints %,Rats: Wistar femelles [2]; animals with macroscopic lesions,83.33%
same,Intensité des lésions Cotation,Rats: Wistar femelles [2]; scale Stade 0 to Stade 5,1.83
same,Histologie score,Rats: Wistar femelles [3],2.13
same,taux de mortalité,Rats: Wistar femelles [4]; lots of 15 rats on atherogenic diet,3/15
same,Score Total,"Rats: Wistar femelles [4]; sum of Biochimie, Risque athérogène, Macroscopie, Histologie",6.51
"CC(C)OC(=O)C(C)(C)Oc1ccc(C(=O)c2ccc(Cl)cc2)cc1 [Procétofène, reference compound]","Chol. HDL/ LDL, score par rapport au Procétofène 250 mg/kg",Rat Wistar; [6],1.00
same,"Chol. Total, score par rapport au Procétofène 250 mg/kg",Rat Wistar; [6],1.00
same,"Lipides Totaux, score par rapport au Procétofène 250 mg/kg",Rat Wistar; [6],1.00
same,Score Total par rapport au Procétofène 250 mg/kg,Rat Wistar; [6],4.00
same,"Triglycérides, score par rapport au Procétofène 250 mg/kg",Rat Wistar; [6],1.00
same,"Chol. HDL/ LDL, score par rapport au Procétofène 250 mg/kg",Rat Wistar; [7],1.00
same,"Chol. Total, score par rapport au Procétofène 250 mg/kg",Rat Wistar; [7],1.00
same,"Lipides Total, score par rapport au Procétofène 250 mg/kg",Rat Wistar; [7],1.00
same,Score Total par rapport au Procétofène 250 mg/kg,Rat Wistar; [7],4.00
same,"Triglycérides, score par rapport au Procétofène 250 mg/kg",Rat Wistar; [7],1.00
same,"Chol. HDL/ LDL, score par rapport au Procétofène 250 mg/kg",Rat Wistar; [8],1.53
same,"Chol. Total, score par rapport au Procétofène 250 mg/kg",Rat Wistar; [8],1.65
same,"Lipides Totaux, score par rapport au Procétofène 250 mg/kg",Rat Wistar; [8],1.65
same,Score Total par rapport au Procétofène 250 mg/kg,Rat Wistar; [8],5.12
same,"Chol. HDL/ LDL, score par rapport au Procétofène 250 mg/kg",Rat Wistar; [9],0.30
same,"Lipides Total, score par rapport au Procétofène 250 mg/kg",Rat Wistar; [9],0.85
same,Score Total par rapport au Procétofène 250 mg/kg,Rat Wistar; [9],3.33
